The values that follow come from patent publication US11058678B2 (Enanta Pharmaceuticals, Inc., priority 2018, dated 2021).

Structures are written as SMILES.

A word on the EC50: it is the concentration that produces a half-maximal response. Higher therefore signals a less potent agent.

This assay relates to HBV (2.2.15 cells). The assay is described as follows: Antiviral activity in 2.2.15 cells: reduction of viral product accumulation (qPCR of lysates, HBsAg or HBeAg ELISA). Type of assay: cell-based, hepatitis B virus (HBV). To be noted: Hepatitis B virus, 120 h, day 5 post treatment, 50% reduction of viral product accumulation in lysates or supernatants vs no drug controls, readout (qPCR, HBsAg, HBeAg) not specified. The procedure: 2.2.15 cells are passaged upon attaining confluency in DMEM/F12 media in the presence of 10% FBS, Penn/Strep, and 250 ug/mL G418. Novel compounds are 5 fold serially diluted in DMSO and added to 96 well plates containing 35,000 cells/well at a 1:200 dilution so that the final concentration of DMSO is 0.5%. On day 5, post treatment cell lysates and supernatants are harvested for analysis.
Cells are lysed using Agilent Sidestep Lysis buffer, diluted 1:100 and quantified via quantitative real time PCR. Commercially available ELISA kits are used to quantitate the viral proteins HBsAg (Alpco) or HBeAg (US Biological) by following the manufacturer's recommended protocol after diluting samples to match the linear range of their respective assays. Irrespective of readout, compound concentrations that reduce viral product accumulation in the cell lysates or supernatants by 50% relative to no drug controls (EC50) are reported; EC50 ranges are as follows: A<0.1 μM; B 0.1-1 μM; C>1 μM.
(Quantitative PCR measures a nucleic acid by following its amplification.)

As to `CC(C)[C@@H]1Cc2c(cc(-c3ccn(C)n3)c3c2CCO3)-c2cc(=O)c(C(=O)O)cn21` [Example 98, (S)-5-isopropyl-12-(1-methyl-1H-pyrazol-3-yl)-9-oxo-2,3,4,9-tetrahydro-5H-furo[3,2-f]pyrido[2,1-a]isoquinoline-8-carboxylic Acid], the EC50 was greater than 1000 nM.
In turn, `CC(C)[C@@H]1Cc2c(cc(-c3cccs3)c3c2CCO3)-c2cc(=O)c(C(=O)O)cn21` [Example 99, (S)-5-isopropyl-9-oxo-12-(thiophen-2-yl)-2,3,4,9-tetrahydro-5H-furo[3,2-f]pyrido[2,1-a]isoquinoline-8-carboxylic Acid] registered an EC50 of less than 100 nM.
Take `CC(C)[C@@H]1Cc2c(cc(-c3ccco3)c3c2CCO3)-c2cc(=O)c(C(=O)O)cn21` [Example 101, (S)-12-(furan-2-yl)-5-isopropyl-9-oxo-2,3,4,9-tetrahydro-5H-furo[3,2-f]pyrido[2,1-a]isoquinoline-8-carboxylic Acid]: the EC50 is less than 100 nM.
With `CC(C)[C@@H]1Cc2c(cc(-c3cn[nH]c3)c3c2CCO3)-c2cc(=O)c(C(=O)O)cn21` [Example 102, (S)-5-isopropyl-9-oxo-12-(1H-pyrazol-4-yl)-2,3,4,9-tetrahydro-5H-furo[3,2-f]pyrido[2,1-a]isoquinoline-8-carboxylic Acid], the EC50 is less than 100 nM.
For `CC(C)[C@@H]1Cc2c(cc(-c3cnsc3)c3c2CCO3)-c2cc(=O)c(C(=O)O)cn21` [Example 103, (S)-5-isopropyl-12-(isothiazol-4-yl)-9-oxo-2,3,4,9-tetrahydro-5H-furo[3,2-f]pyrido[2,1-a]isoquinoline-8-carboxylic Acid] the value was less than 100 nM; for `CC(C)[C@@H]1Cc2c(cc(-c3ccncc3)c3c2CCO3)-c2cc(=O)c(C(=O)O)cn21` [Example 104, (S)-5-isopropyl-9-oxo-12-(pyridin-4-yl)-2,3,4,9-tetrahydro-5H-furo[3,2-f]pyrido[2,1-a]isoquinoline-8-carboxylic Acid], less than 100 nM; for `CC(C)[C@@H]1Cc2c(cc(-c3cccnc3)c3c2CCO3)-c2cc(=O)c(C(=O)O)cn21` [Example 105, (S)-5-isopropyl-9-oxo-12-(pyridin-3-yl)-2,3,4,9-tetrahydro-5H-furo[3,2-f]pyrido[2,1-a]isoquinoline-8-carboxylic Acid], less than 100 nM.
Take `CC(C)[C@@H]1Cc2c(cc(-c3ccn[nH]3)c3c2CCO3)-c2cc(=O)c(C(=O)O)cn21` [Example 106, (S)-5-isopropyl-9-oxo-12-(1H-pyrazol-5-yl)-2,3,4,9-tetrahydro-5H-furo[3,2-f]pyrido[2,1-a]isoquinoline-8-carboxylic Acid]: the concentration giving a half-maximal response (EC50) is less than 100 nM.
Compound `CC(C)[C@@H]1Cc2c(cc(-c3cccc(F)c3)c3c2CCO3)-c2cc(=O)c(C(=O)O)cn21` [Example 107, (S)-12-(3-fluorophenyl)-5-isopropyl-9-oxo-2,3,4,9-tetrahydro-5H-furo[3,2-f]pyrido[2,1-a]isoquinoline-8-carboxylic Acid] showed a half-maximal effective concentration (EC50) of less than 100 nM.
The compound `CC(C)[C@@H]1Cc2c(cc(-c3ccccc3F)c3c2CCO3)-c2cc(=O)c(C(=O)O)cn21` [Example 108, (S)-12-(2-fluorophenyl)-5-isopropyl-9-oxo-2,3,4,9-tetrahydro-5H-furo[3,2-f]pyrido[2,1-a]isoquinoline-8-carboxylic Acid] displayed a concentration for a half-maximal effect (EC50) of less than 100 nM.
As for `CC(C)[C@@H]1Cc2c(cc(-c3ccc(Cl)cc3)c3c2CCO3)-c2cc(=O)c(C(=O)O)cn21` [Example 109, (S)-12-(4-chlorophenyl)-5-isopropyl-9-oxo-2,3,4,9-tetrahydro-5H-furo[3,2-f]pyrido[2,1-a]isoquinoline-8-carboxylic Acid], the EC50 was greater than 1000 nM.
`CC(C)[C@@H]1Cc2c(cc(N3CCCC3)c3c2CCO3)-c2cc(=O)c(C(=O)O)cn21` [Example 110, (S)-5-isopropyl-9-oxo-12-(pyrrolidin-1-yl)-2,3,4,9-tetrahydro-5H-furo[3,2-f]pyrido[2,1-a]isoquinoline-8-carboxylic Acid] displayed an EC50 of less than 100 nM.
Consider `CC(C)(C)[C@@H]1Cc2c(cc(N3CCC3)c3c2CCO3)-c2cc(=O)c(C(=O)O)cn21` [Example 111, (S)-12-(azetidin-1-yl)-5-(tert-butyl)-9-oxo-2,3,4,9-tetrahydro-5H-furo[3,2-f]pyrido[2,1-a]isoquinoline-8-carboxylic Acid], for which the concentration for a half-maximal effect (EC50) was less than 100 nM.
The compound `CC(C)[C@@H]1Cc2c(cc(-c3cccc(Cl)c3)c3c2CCO3)-c2cc(=O)c(C(=O)O)cn21` [Example 112, (S)-12-(3-chlorophenyl)-5-isopropyl-9-oxo-2,3,4,9-tetrahydro-5H-furo[3,2-f]pyrido[2,1-a]isoquinoline-8-carboxylic Acid] came in with an EC50 greater than 1000 nM.
With `CC(C)[C@@H]1Cc2c(cc(-c3ccccc3Cl)c3c2CCO3)-c2cc(=O)c(C(=O)O)cn21` [Example 113] the figure was greater than 1000 nM; with `CC(C)[C@@H]1Cc2c(cc(-c3ccc(F)c(F)c3)c3c2CCO3)-c2cc(=O)c(C(=O)O)cn21` [Example 114, (S)-12-(3,4-difluorophenyl)-5-isopropyl-9-oxo-2,3,4,9-tetrahydro-5H-furo[3,2-f]pyrido[2,1-a]isoquinoline-8-carboxylic Acid], greater than 1000 nM; with `COc1ccc(-c2cc3c(c4c2OCC4)C[C@@H](C(C)C)n2cc(C(=O)O)c(=O)cc2-3)cc1` [Example 115, (S)-5-isopropyl-12-(4-methoxyphenyl)-9-oxo-2,3,4,9-tetrahydro-5H-furo[3,2-f]pyrido[2,1-a]isoquinoline-8-carboxylic Acid], greater than 1000 nM.
For `CC(C)[C@@H]1Cc2c(cc(-n3cccn3)c3c2CCO3)-c2cc(=O)c(C(=O)O)cn21` [Example 116] the value was less than 100 nM.
The compound `CC(C)[C@@H]1Cc2c(cc(N3CCC3)c3c2CCO3)-c2cc(=O)c(C(=O)O)cn21` [Example 117, (S)-12-(azetidin-1-yl)-5-isopropyl-9-oxo-2,3,4,9-tetrahydro-5H-furo[3,2-f]pyrido[2,1-a]isoquinoline-8-carboxylic Acid] gave an EC50 of less than 100 nM.
Take `CC(C)(C)[C@@H]1Cc2c(cc(N3CCOCC3)c3c2CCO3)-c2cc(=O)c(C(=O)O)cn21` [Example 118, (S)-5-(tert-butyl)-12-morpholino-9-oxo-2,3,4,9-tetrahydro-5H-furo[3,2-f]pyrido[2,1-a]isoquinoline-8-carboxylic Acid]: the EC50 is less than 100 nM.
`CC(C)(C)[C@@H]1Cc2c(cc(N3CC4(COC4)C3)c3c2CCO3)-c2cc(=O)c(C(=O)O)cn21` [Example 119, (S)-5-(tert-butyl)-9-oxo-12-(2-oxa-6-azaspiro[3.3]heptan-6-yl)-2,3,4,9-tetrahydro-5H-furo[3,2-f]pyrido[2,1-a]isoquinoline-8-carboxylic Acid] came in with an EC50 greater than 1000 nM.
For `CC(C)(C)[C@@H]1Cc2c(cc(N3CC4(CCO4)C3)c3c2CCO3)-c2cc(=O)c(C(=O)O)cn21` [Example 120, (S)-5-(tert-butyl)-9-oxo-12-(1-oxa-6-azaspiro[3.3]heptan-6-yl)-2,3,4,9-tetrahydro-5H-furo[3,2-f]pyrido[2,1-a]isoquinoline-8-carboxylic Acid], the concentration for a half-maximal effect (EC50) was greater than 1000 nM.
With `COCCCOc1cc2c(cc1-c1cnco1)-c1cc(=O)c(C(=O)O)cn1[C@H]1[C@@H]2COC1(C)C` [Example 121, (3aS,12bR)-11-(3-methoxypropoxy)-3,3-dimethyl-10-(oxazol-5-yl)-7-oxo-3,3a,7,12b-tetrahydro-1H-furo[3,4-c]pyrido[2,1-a]isoquinoline-6-carboxylic Acid] the figure was less than 100 nM; with `COCCCOc1cc2c(cc1-c1ccnn1C)-c1cc(=O)c(C(=O)O)cn1[C@H]1[C@@H]2COC1(C)C` [Example 122, (3aS,12bR)-11-(3-methoxypropoxy)-3,3-dimethyl-10-(1-methyl-1H-pyrazol-5-yl)-7-oxo-3,3a,7,12b-tetrahydro-1H-furo[3,4-c]pyrido[2,1-a]isoquinoline-6-carboxylic Acid], greater than 1000 nM; with `COCCCOc1cc2c(cc1-c1cnn(C)c1)-c1cc(=O)c(C(=O)O)cn1[C@H]1[C@@H]2COC1(C)C` [Example 123, (3aS,12bR)-11-(3-methoxypropoxy)-3,3-dimethyl-10-(1-methyl-1H-pyrazol-4-yl)-7-oxo-3,3a,7,12b-tetrahydro-1H-furo[3,4-c]pyrido[2,1-a]isoquinoline-6-carboxylic Acid], less than 100 nM.
As for `COCCCOc1cc2c(cc1-c1ccn(C)n1)-c1cc(=O)c(C(=O)O)cn1[C@H]1[C@@H]2COC1(C)C` [Example 124, (3aS,12bR)-11-(3-methoxypropoxy)-3,3-dimethyl-10-(1-methyl-1H-pyrazol-3-yl)-7-oxo-3,3a,7,12b-tetrahydro-1H-furo[3,4-c]pyrido[2,1-a]isoquinoline-6-carboxylic Acid], the 50% effective concentration (EC50) was less than 100 nM.
`COCCCOc1cc2c(cc1-c1ccco1)-c1cc(=O)c(C(=O)O)cn1[C@H]1[C@@H]2COC1(C)C` [Example 125, (3aS,12bR)-10-(furan-2-yl)-11-(3-methoxypropoxy)-3,3-dimethyl-7-oxo-3,3a,7,12b-tetrahydro-1H-furo[3,4-c]pyrido[2,1-a]isoquinoline-6-carboxylic Acid]: the concentration giving a half-maximal response (EC50) was less than 100 nM.
For `COCCCOc1cc2c(cc1-c1ccoc1)-c1cc(=O)c(C(=O)O)cn1[C@H]1[C@@H]2COC1(C)C` [Example 126, (3aS,12bR)-10-(furan-3-yl)-11-(3-methoxypropoxy)-3,3-dimethyl-7-oxo-3,3a,7,12b-tetrahydro-1H-furo[3,4-c]pyrido[2,1-a]isoquinoline-6-carboxylic Acid] the value was less than 100 nM.
